Patent US7368475B2, “Furanose-type bicyclic carbohydrates with biological activity” (Kemin Pharma BVBA, priority 2003, dated 2008)
Values after ≈ are worked out from the molar mass of the structure shown.

Tests used:
[1] = tested on: C. perfringens ATCC 13124; type: cell-based, Clostridium perfringens; settings: negative control = 100
CMV David Strain = experiment: CMV plaque formation in HEL cells, David strain; type: cell-based, human Cytomegalovirus; settings: Human betaherpesvirus 5, virus plaque formation, virus input 100 PFU
VV = experiment: VV-induced cytopathicity in human embryo fibroblast E6SM; type: cell-based, Vaccinia Virus; settings: for EC50: Orthopoxvirus vaccinia, E6SM, read-out: EC50 VV (E6SM)
E. coli ATCC 25922 = experiment: microbe, parasite or virus in culture; type: cell-based; settings: Escherichia coli, ATCC25922, negative control = 100, read-out: % of growth at 25 PPM compared to negative control, E. coli ATCC 25922
[2] = tested on: S. aureus ATCC 29213 LMG 10147; experiment: microbe, parasite or virus in culture; type: cell-based; settings: Staphylococcus aureus, negative control = 100, read-out: % of growth at 25 PPM compared to negative control, S. aureus ATCC 29213 LMG 10147
[3] = tested on: T. mentagrophytes ATCC 9233 IHEM 10342; experiment: microbe, parasite or virus in culture; type: cell-based; settings: Trichophyton mentagrophytes, ATCC9233, negative control = 100, read-out: % of growth at a dose of 25 PPM compared to the negative control, T. mentagrophytes ATCC 9233 IHEM 10342
[4] = tested on: P. aeruginosa ATCC 27853 LMG 16217; experiment: microbe, parasite or virus in culture; type: cell-based; settings: Pseudomonas aeruginosa, negative control = 100, read-out: % of growth at 25 PPM compared to negative control, P. aeruginosa ATCC 27853 LMG 16217
[5] = tested on: C. neoformans ATCC 90112 IHEM 9558; experiment: microbe, parasite or virus in culture; type: cell-based; settings: Cryptococcus neoformans, ATCC90112, negative control = 100, read-out: % of growth at a dose of 25 PPM compared to the negative control, C. neoformans ATCC 90112 IHEM 9558
A. fumigatus IHEM 2895 = experiment: microbe, parasite or virus in culture; type: cell-based; settings: Aspergillus fumigatus, IHEM2895, negative control = 100, read-out: % of growth at a dose of 25 PPM compared to the negative control, A. fumigatus IHEM 2895
[6] = tested on: Candida albicans ATCC 24433 IHEM 10284; experiment: microbe, parasite or virus in culture; type: cell-based; settings: ATCC24433, negative control = 100, read-out: % of growth at a dose of 25 PPM compared to the negative control, Candida albicans ATCC 24433 IHEM 10284
[7] = tested on: E. faecalis ATCC 29212 LMG 8222; experiment: microbe, parasite or virus in culture; type: cell-based; settings: Enterococcus faecalis, negative control = 100, read-out: % of growth at 25 PPM compared to negative control, E. faecalis ATCC 29212 LMG 8222
HSV-1 (KOS) = experiment: HSV-1 (KOS)-induced cytopathicity in human embryo fibroblast E6SM; type: cell-based, Herpes Simplex Virus; settings: Human alphaherpesvirus 1
CMV AD-169 Strain = experiment: CMV plaque formation in HEL cells, AD-169 strain; type: cell-based, human Cytomegalovirus; settings: for IC50: Human betaherpesvirus 5, AD169, virus plaque formation, HEL cells, virus input 100 PFU; for activity against CMV (in words): strain not specified
HSV-2 (G) = experiment: HSV-2 (G)-induced cytopathicity in human embryo fibroblast E6SM; type: cell-based, Herpes Simplex Virus; settings: Human alphaherpesvirus 2
[8] = tested on: murine leukemia cells (L1210/0); experiment: Inhibition of proliferation of murine leukemia cells L1210/0; type: cell-based; settings: for IC50: Mus musculus, L1210/0, read-out: IC50 L1210/0
Procedure: (§1) The compounds were tested for antitumor activity via the inhibitory effects on the proliferation of murine leukemia cells (L1210/0), murine mammary carcinoma cells (FM3A) and human T-lymphocyte cells (Molt4/C8), (CEM/0). […] Compound A1 and Compound A4 show no effect at concentrations up to 200 ppm.

VZV 07/1 = experiment: microbe, parasite or virus in culture; type: cell-based, Varicella Zoster Virus; settings: Human alphaherpesvirus 3, HEL, read-out: EC50 VZV (HEL) 07/1
[9] = tested on: human T-lymphocyte cells (Molt4/C8); experiment: Inhibition of proliferation of human T-lymphocyte cells Molt4/C8; type: cell-based; settings: cytostatic activity, 50% inhibitory concentration
Procedure: as §1

HIV-1 (IIIB) = experiment: microbe, parasite or virus in culture; type: cell-based; settings: Human immunodeficiency virus 1, IIIB, CCRF-CEM; HIV-induced cytopathicity in human CEM cell cultures
VZV OKA = experiment: microbe, parasite or virus in culture; type: cell-based, Varicella Zoster Virus; settings: Human alphaherpesvirus 3, HEL, read-out: EC50 VZV (HEL) OKA
HIV-2 (ROD) = experiment: HIV-2 (ROD)-induced cytopathicity in human CEM cell cultures; type: cell-based; settings: Human immunodeficiency virus 2, CCRF-CEM
[10] = tested on: human T-lymphocyte cells (CEM/0); experiment: Inhibition of proliferation of human T-lymphocyte cells CEM/0; type: cell-based; settings: CCRF-CEM, cytostatic activity, 50% inhibitory concentration
Procedure: as §1

[11] = tested on: murine mammary carcinoma cells (FM3A); experiment: Inhibition of proliferation of murine mammary carcinoma cells FM3A; type: cell-based; settings: Mus musculus, cytostatic activity, 50% inhibitory concentration, read-out: IC50 FM3A/0
Procedure: as §1

Row | Structure (SMILES) | % of growth at 25 PPM compared to negative control, C. perfringens ATCC 13124 [1] | IC50 (CMV David Strain) | EC50 (VV) | activity at 25 ppm (E. coli ATCC 25922) | activity at 25 ppm [2] | activity at 25 ppm [3] | activity at 25 ppm [4] | activity at 25 ppm [5] | activity at 25 ppm (A. fumigatus IHEM 2895) | activity at 25 ppm [6] | activity at 25 ppm [7] | EC50 (HSV-1 (KOS)) | IC50 (CMV AD-169 Strain) | EC50 (HSV-2 (G)) | activity against CMV (in words) (CMV AD-169 Strain) | EC50 (VZV 07/1) | EC50 (VZV OKA) | further results
1 | CC(=O)OC[C@H]1O[C@@H](c2ccccc2)C[C@@H]1OC(C)=O [Compound A7, β-D-1,2-dideoxy-1-phenyl-ribofuranose-3,5-diacetate] | 95.4% | > 100 µg/mL | > 400 µg/mL | 94.8% | 91.2% | 83% | 92.7% | 67.8% | 95% | 83.4% | 98.1% | > 400 µg/mL | > 100 µg/mL | > 400 µg/mL | – | – | – | –
2 | CC(C)[Si]1(C(C)C)OC[C@H]2OC(c3ccccc3)C[C@@H]2O[Si](C(C)C)(C(C)C)O1 (stereo partly drawn) [Compound A6 A + B, α-β-D-1,2-dideoxy-1-phenyl-3,5-O-(1,1,3,3-tetraisopropyldisiloxanylidene)-ribofuranose] | 98.0% | – | – | 94% | 95% | 56% | 92% | 102% | 54% | 85% | 95% | – | – | – | – | – | – | –
3 | CO[C@@H]1[C@@H]2O[C@H](c3ccccc3)OC[C@H]2O[C@H]1c1ccccc1 [Compound A5, β-D-1-Deoxy-1-phenyl-2-O-methyl-3,5-O-benzylidene-ribose] | 95.0% | – | – | 124% | 92% | 66% | 91% | 76% | 57% | 120% | 92% | – | – | – | slight | – | – | –
4 | CO[C@@H]1[C@@H]2O[Si](C(C)C)(C(C)C)O[Si](C(C)C)(C(C)C)OC[C@H]2O[C@H]1c1ccccc1 [Compound A3, β-D-1-Deoxy-1-phenyl-2-O-methyl-3,5-O-(1,1,3,3-tetraisopropyldisiloxanylidene)-ribofuranose] | – | 1.3 µg/mL (≈ 2.79 µM) | > 16 µg/mL | 91.3% | 92.5% | 64.4% | 87.6% | 81.1% | 37.5% | 62.2% | 94.2% | > 16 µg/mL | 1.3 µg/mL (≈ 2.79 µM) | > 16 µg/mL | significant activity | > 2 µg/mL | > 2 µg/mL | IC50 [8]: 18 ± 0.5 µg/mL (≈ 38.6 µM); cytostatic activity (in words) ([8]; text summary over L1210/0, FM3A, Molt4/C8, CEM/0): small cytostatic activity; IC50 [9]: 19 ± 2 µg/mL (≈ 40.7 µM); EC50 (HIV-1 (IIIB)): > 4 µg/mL; EC50 (HIV-2 (ROD)): > 4 µg/mL; IC50 [10]: 20 ± 4 µg/mL (≈ 42.8 µM); IC50 [11]: 15 µg/mL (≈ 32.1 µM)
5 | CO[C@@H]1[C@H](O)[C@@H](CO)O[C@H]1c1ccccc1 [Compound A4, β-D-1-Deoxy-1-phenyl-2-O-methyl-ribofuranose] | – | > 50 µg/mL | > 400 µg/mL | 92.8% | 96.9% | 79.7% | 93.5% | 99.9% | 70.9% | 110% | 95.4% | > 400 µg/mL | > 50 µg/mL | > 400 µg/mL | – | > 50 µg/mL | > 50 µg/mL | IC50 [8]: > 200 µg/mL; effect on cell proliferation (in words) ([8]; at concentrations up to 200 ppm, L1210/0, FM3A, Molt4/C8, CEM/0): no effect; IC50 [9]: > 200 µg/mL; EC50 (HIV-1 (IIIB)): > 100 µg/mL; EC50 (HIV-2 (ROD)): > 100 µg/mL; IC50 [10]: > 200 µg/mL; IC50 [11]: > 200 µg/mL
6 | CC1(C)O[C@H]2O[C@H](COCc3ccccc3)[C@H](OCc3ccccc3)[C@H]2O1 [Compound A9, α-D-1,2-O-isopropylidene-3,5-O-dibenzyl-xylofuranose] | 95.1% | 7.6 µg/mL (≈ 20.5 µM) | 48 µg/mL (≈ 130 µM) | 95.6% | 93.7% | 92% | 93% | 55.1% | 74% | 85.9% | 102% | > 80 µg/mL | 10.5 µg/mL (≈ 28.3 µM) | > 80 µg/mL | significant activity | > 80 µg/mL | > 80 µg/mL | activity against VV (in words) (VV; Table 2): slight activity
7 | OC[C@H]1O[C@@H](c2ccccc2)C[C@@H]1O [Compound A8, β-D-1,2-dideoxy-1-phenyl-ribofuranose] | 96.2% | > 100 µg/mL | > 400 µg/mL | 99.2% | 92.3% | 95% | 92.7% | 84.8% | 107% | 92.4% | 95.5% | > 400 µg/mL | > 100 µg/mL | > 400 µg/mL | – | – | – | melting point: 89 to 91 °C
